Data as given in patent EP2229935A1, “Peptide derivatives or pharmaceutically acceptable salts thereof, method for producing the same, use of said derivatives and pharmaceutical composition” (Nebolsin, Vladimir Evgenievich, priority 1997, dated 1999).
Values joined by “and” are separate entries in the source; they are usually repeats but may differ in a detail not shown here. Equal entries are not always repeated. Marks after values point to notes of the source that are not given here.

Assays:
[1] = tested on: hydroxyl radical; assay: Hydroxyl radical formation in the Fenton reagent (chemiluminescence); type: biochemical
[2] = tested on: Salmonella spp.; assay: Resistance of mice to Salmonella spp. infection; type: in vivo; details: test compounds 500 µg/kg orally; for MLT: mean lifetime
Protocol: Effect of the compounds of general formula (I) on change in average lifetime of experimental animals infected with Salmonella spp.
Experiments were carried out on mongrel white mice of both sexes weighing 18-22 g. Compounds III, XLIV and the reference drug sodium nucleinate were administered orally for 3 days (a total of 6 times) prior and post infection (dosage regimen -3, -2, -1, 0, 1, 2, 3, where 0 is infection day). A 24-hour Salmonella spp. culture grown on Hottinger agar, was used for infecting. Normal saline solution was used to prepare cellular suspension. Suspension of Salmonella spp. cells was administered subcutaneously at a dose 5 x 10^8 cells per a mouse in 0.5 ml.

[3] = tested on: progesterone, 17-oxyprogesterone, 11-desoxycortisol and cortisol; assay: Blood serum hormone levels (radioimmunoassay); type: in vivo, guinea pigs; details: for Progesterone, blood serum level (Experiment) / Oxyprogesterone, blood serum level (Experiment) / Desoxycortisol, blood serum level (Experiment) / Cortisol, blood serum level (Experiment): oral three times 50 µg/kg
Protocol: Sensibilization of animals was done as described in example 27. Blood for hormonal level determination was sampled in animals before commencement of experiment and 18 hours after the last drug administration from 10 to 11 hours. […] A comparative hormonal state analysis was carried out by individual changes in each animal in a group. Mean parametric values expressed in nM/l, are presented by the groups in table 21.
Blood serum levels of the hormones progesterone, 17-oxyprogesterone, 11-desoxycortisol and cortisol were determined by radioimmunoassay using the Beloris company kits. Hormone concentration in samples was determined by the relation graph between the activity of a precipitated bound labelled hormone and hormone concentration in the calibration samples.

[4] = tested on: hepatic P-450 cytochrome system; assay: Hexenal sleep duration in mice; type: in vivo
Summary of the method: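 Male mice (several inbred/hybrid lines, 18-20 g, n=10) and mongrel male guinea pigs (250-300 g, n=24) given compounds orally in drinking water for three days at 50 and 500 µg/kg. Hexenal given 24 h after last dose ([…]); sleep duration recorded in minutes.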

[5] = tested on: Male guinea pigs; assay: Antigen-induced bronchospasm in actively sensitized guinea pigs; type: in vivo; details: sensitized guinea pigs
Protocol: Antiasthmatic effect of the test compounds was studied using an antigen-induced bronchospasm model in actively sensitized guinea pigs according to the Andersson method [Andersson P. Antigen induced bronchial anaphylaxis in actively sensitized guinea pig. Allergy (1980), Vol. 35, pp. 65-71].
Male guinea pigs were sensitized with intramuscular injection of 0.5 ml suspension comprising 20 micrograms ovalbumin (OVA, manufactured by the Sigma company [grade III]) and 100 mg Al(OH)3 per one animal. Anaphylaxis-provoking dose 150-200 µg/kg OVA in 0.1 ml normal saline was intravenously (v. jugularis) injected on day 26 after sensibilization. Bronchospasm induction and measuring external respiration parameters were carried out according to the method described in Yu-Hong L., Barnes P., Rogers D. Inhibition of neurogenic plasma exudation and bronchoconstriction by a K+ channel activator, BRL 38227, in guinea pig airways in vivo. Europ. J. Pharmacol. (?), Vol. 239, pp.257-259]. Measurement of respiration parameters was performed using a transducer (Ugo Basel, model 7020), connected with a cannula and a recorder (Millichrome), recording breathing amplitude. […] Efficacy of compounds was determined by change in bronchospasm value.
Inthal was used as a reference drug that was administered to animals at a dose 5 µg/kg according to the same dosage regimen as the test substances were administered. The control group of animals received equivalent amount of normal saline.
Groups of animals: group 1 - control; group 2 - animals given Inthal; group 3 - animals given oral compound XLIV; group IV - animals given oral compound III; group 5 - animals given intratracheal compound III; group 6 - animals given compound XLIX, group 7 - animals given compound XXXI, group 8 - animals given compound XLVI; group 9 - animals given compound VI, group 10 - animals given compound XLVIII.

[6] = tested on: γ-interferon; assay: γ-interferon production by splenocytes after stress; type: in vivo, Balb male mice; details: 50 µg/kg orally
Protocol: Experiments were carried out on inbred Balb male mice with initial body mass 16-18 g. Each group included 12 animals. The model of swimming in warm water for 20 minutes was used to develop emotional-locomotory stress in animals. Stress development was estimated by the activity of natural killer lymphocytes (NK cells) and by functioning of the interferon system [Sukhikh T.G., Nossik N.N., Parshina O.V., Van'ko L.V., Meerson F.Z., Yershov F.I. Relationship between the natural cellular cytotoxicity system and the interferon system in immobilization stress. Bulletin of Experimental Biology (1984), ? , pp.593-595].
In studying interferon reaction of mouse splenocytes spleen cells were placed into incubation medium (the RPMI-1640 medium + 10% fetal calf serum), their concentration was brought to 1-3 x 10^8 cells/ml and they were incubated at 37°C for 24 hours. Newcasle disease virus (α-interferon induction) and FGA mitogen (γ-interferon induction) were used as intereferon inducers [Nossik N.N., Bopegamage S.A., Yershov F.I. Properties of interferons produced by different cell populations. Acta microbiologica Hungarica (1988), Vol. 35, Iss. 4, pp. 397-403].
Animals were divided into four groups, each including 36 mice. • Group 1 - intact animals not subjected to stress and given normal saline (NS). • Group 2 - animals which ere subjected to stress effect and given NS. • Group 3 - animals which were subjected to stress effect and administered compound III. • Group 4 - animals which were subjected to stress effect and administered compound XLIV.
Activity of NK-cells and interferon state were dynamically determined in 4 hours following stress, in 24 hours and then by days 5, 7 and 10.

[7] = 1 µM, control of the series as in the table
[8] = 0.01 mM, control of the series as in the table
[9] = 0.1 mM, control of the series as in the table
[10] = 1 mM, control of the series 7839 ± 171, 1120 ± 163, 4974 ± 283 or 1332 ± 172
[11] = Day 1 following infection, regimen -3..3
[12] = 50 µg/kg per os, 72, 48 and 18 hours prior to bronchospasm induction

Row | Molecule | relative effect: I+/I- ([1]; 1 µM) | Chemiluminiscence intensity (mV) + σn-1 [1, 7] [mV] | relative effect: I+/I- ([1]; 0.01 mM) | Chemiluminiscence intensity (mV) + σn-1 [1, 8] [mV] | relative effect: I+/I- ([1]; 0.1 mM) | Chemiluminiscence intensity (mV) + σn-1 [1, 9] [mV] | relative effect: I+/I- ([1]; 1 mM) | Chemiluminiscence intensity (mV) + σn-1 [1, 10] [mV] | Number of dead mice [2, 11] | Number of dead mice ([2]; Day 3 following infection) | Number of dead mice ([2]; Day 5 following infection) | Number of dead mice ([2]; Day 6 following infection) | Number of dead mice ([2]; Day 7 following infection) | MLT [2] [days] | Bronchospasm (percent of the maximum value) [5, 12] | γ-interferon, U/ml ([6]; 0 days after stress) [U/ml] | γ-interferon, U/ml ([6]; 0.16 days after stress) [U/ml] | γ-interferon, U/ml ([6]; 1 day after stress) [U/ml] | γ-interferon, U/ml ([6]; 5 days after stress) [U/ml] | γ-interferon, U/ml ([6]; 7 days after stress) [U/ml] | other results
1 | O=C(O)CCCC(=O)NCCc1c[nH]cn1 [compound III, N-GLUTARYLHISTAMINE] | 0.98 | 1100 ± 84 | 0.87 | 972 ± 79 | 0.64 | 719 ± 71 | 0.15 | 164 ± 14 | 1 | 1 | 1 | 2 | 2 | 4.5 ± 0.65 | 12.0 4.0** percent of the maximum value | 80 | 80 | 32 | 32 | 320 | Number of dead mice ([2]; Day 2 following infection): 1*^1; Number of dead mice ([2]; Day 4 following infection): 2; hormonal state changes ([3]; intact and sensitized guinea pigs, compared with compound XLIV): the same hormonal state changes were observed; Hexenal sleep duration (minutes) ([4]; CBF1 mice, oral 3 days, 50 µg/kg, control 25.91 ± 1.57): 19.61 ± 2.69** minutes; Hexenal sleep duration (minutes) ([4]; CBF1 mice, oral 3 days, 500 µg/kg, control 25.91 ± 1.57): 22.02 ± 1.45 * minutes; Bronchospasm (percent of the maximum value) ([5]; 50 µg/kg intratracheally, 15 minutes prior to bronchospasm induction): 24.6 6.4* percent of the maximum value; γ-interferon, U/ml ([6]; 10 days after stress): 80 U/ml
2 | γ-L-glutamylhistamine [compound XLIV] | 1.0 | 7747 ± 259 | 0.83 | 6444 ± 267 | 0.59 | 4625 ± 393 | 0.28 (*) | 2197 ± 311 | 3*^2 | 1 | 5 | 2 | 1 | 4.0 ± 0.73 | 15.6 3.2** percent of the maximum value | 80 | 20 | 320 | 40 | 32 | Progesterone, blood serum level (Experiment) ([3]; intact guinea pigs, individual control 2.53): 2.87 nM/l; Oxyprogesterone, blood serum level (Experiment) ([3]; intact guinea pigs, individual control 2.83): 3.88* nM/l; Desoxycortisol, blood serum level (Experiment) ([3]; intact guinea pigs, individual control 20.8): 30.95* nM/l; Cortisol, blood serum level (Experiment) ([3]; intact guinea pigs, individual control 1474.5): 1891.5* nM/l; Progesterone, blood serum level (Experiment) ([3]; sensitized guinea pigs, individual control 1.73): 5.08** nM/l; Oxyprogesterone, blood serum level (Experiment) ([3]; sensitized guinea pigs, individual control 1.79): 2.31* nM/l; Desoxycortisol, blood serum level (Experiment) ([3]; sensitized guinea pigs, individual control 28.9): 33.5 nM/l; Cortisol, blood serum level (Experiment) ([3]; sensitized guinea pigs, individual control 1910.3): 1997.0 nM/l; Hexenal sleep duration ([4]; BALB/c*h75 mice, oral 3 days, 50 µg/kg, control 29.16 ± 5.68): 26.50 ± 3.49 min; Hexenal sleep duration (minutes) ([4]; BALB/c*h75 mice, oral 3 days, 500 µg/kg, control 29.16 ± 5.68): 16.72 ± 1.27*** minutes; Hexenal sleep duration (minutes) ([4]; BDF1 mice, oral 3 days, 500 µg/kg, control 23.78 ± 0.78): 20.33 ± 0.59* minutes; Hexenal sleep duration (minutes) ([4]; mouse, in vivo, po): 17.98 ± 1.66* minutes and 16.13 ± 1.86** minutes; γ-interferon, U/ml ([6]; 10 days after stress): 32 U/ml
